Data taken from US11406707B2, “STAT3 phosphorylation during graft-versus-host disease” (H. LEE MOFFITT CANCER CENTER AND RESEARCH INSTITUTE, INC., priority 2014, dated 2022).

How the values were obtained:
TH17 responses = details: neutralization of IL-6, literature; cited from earlier work
primed T-cells = experiment: Secondary alloMLR (3-day restimulation of primed T-cells) proliferation; format: cell-based, human; details: Homo sapiens, T-cell; rapamycin 10 ng/ml; read-out: inhibition of proliferation in comparison to DMSO
From the text: Bulk donor T-cells were allostimulated with cytokine-matured, allogeneic moDCs at a DC:T-cell ratio of 1:30 as previously described (Florida Blood Services) [Betts, B C, et al. (2011) Blood 118:5330-9; Betts, B C, et al. […] Betts, B C, et al. (2011) Blood 118:5340-3]. […] Lower doses of each drug were used in these experiments to mimic expected physiologic concentrations [Siddiquee, K, et al. (2007) Proceedings of the National Academy of Sciences of the United States of America 104:7391-6; Zeiser, R, et al. (2008) Blood 111:453-62], and to better detect potential synergistic activity with the combination of rapamycin and S3I-201. After 5 days of culture at […]-cell proliferation was measured by a colorimetric assay per the manufacturer's instructions (CellTiter 96 Aqueous One Solution Cell Proliferation Assay [MTS]; Promega, Madison, Wis. USA) [Betts, B C, et al. (2011) Blood 118:5330-9; Betts, B C, et al. […] Betts, B C, et al. (2011) Blood 118:5340-3]. Absorbance/optical density (OD) was analyzed at 490 nm. Secondary alloMLR: […] Following priming, the T-cells were then rested and re-cultured with fresh first-party moDCs (DC:T-cell ratio of 1:30). […] After 3 days, T-cell proliferation was measured by a colorimetric assay as described (Promega). T-cells alone and PHA-stimulated T-cells served as negative and positive controls, respectively, for both the primary and secondary alloMLRs.

[1] = literature; cited from earlier work
[2] = system: DC-allosensitized T-cell proliferation; experiment: allo-MLR T-cell proliferation (colorimetric MTS assay, stimulation index); format: cell-based, human; details: CAS 285986-31-4 titration 0-100 μM, day 4
Procedure: Allo-MLRs consisted of T cells stimulated by cytokine-mature moDCs (DC:T-cell ratio 1:30, 1×10^5 T cells per 100 μl medium in a 96-well plate, 37° C.). […] The allogeneic moDC stimulators were matured with a cytokine cocktail and terminally differentiated, eliminating the need for irradiation [Betts, B. C., et al. (2011) Blood 118, 5330-5339]. T-cell proliferation was quantified by a colorimetric assay (CellTiter 96 AQueous One Solution Cell Proliferation Assay [MTS]; Promega, Madison, Wis.) on day 5, per the manufacturer's instructions, with absorbance quantified at 490 nm [Betts, B. C., et al. (2011) Blood 118, 5330-5339]. The stimulation index was calculated by dividing the OD of the allo-MLR by the OD of T cells alone. PHA-stimulated T cells served as a positive control. Identical allo-MLRs were cultured with CAS 285986-31-4, to determine the dose-response effect of STAT5 inhibition on allostimulated T-cell growth. For these initial experiments, the cultures were analyzed on day 4 because of the early rapid T-cell proliferation among the STAT5 inhibitor-treated wells. The stimulation index was determined as described.

T cells = experiment: T-cell viability by Live/Dead staining in treated allo-MLRs; format: cell-based, human; details: CAS 285986-31-4 1 μM
Procedure: Fluorochrome-conjugated mouse anti-human mAbs included anti-CD3, -CD4, -CD8, -CD25, -CD45RO, -CD107a, -CD127, -Foxp3, -pSTAT3/pY705, -pSTAT5/pY694, -IFN-, and -IL-17A (BD Biosciences, San Jose, Calif. USA; eBioscience; San Diego, Calif., USA; Invitrogen; Carlsbad, Calif., USA). Viability was assessed by Live/Dead staining (Invitrogen). Live events were acquired on FACSCalibur or LSRII (BD Biosciences) flow cytometers (FlowJo software, ver. 7.6.4; TreeStar, Ashland, Oreg., USA). Gates were defined by appropriate isotype controls. Naive T-cell sorting was performed on the FACSVantageDiVa (BD Biosciences). Where indicated, CD4^+ T cells were purified by magnetic-bead negative selection (Miltenyi Biotec, Auburn, Calif., USA).

STAT3 = target: T1, STAT3 (Homo sapiens, UniProt P40763); experiment: STAT3 phosphorylation in CD4+ T cells of 5 day allo-MLRs without exogenous cytokine; format: cell-based; details: CAS 285986-31-4 1 μM, 5 day allo-MLR
T1 construct: endogenous in cells; host or cells: primary human T cells from healthy-donor PBMC, allostimulated by monocyte-derived dendritic cells
Procedure: (§1) No exogenous cytokine was added. DC-allosensitized T cells were harvested on day 5. […] The ratio of CD4^+, pSTAT5^Bright to CD4^+, pSTAT3^+ T cells was calculated by percentage of phosphorylation.

STAT5 = STAT5 phosphorylation in CD4+ T cells of 5 day allo-MLRs without exogenous cytokine; format: cell-based, human; details: CAS 285986-31-4 1 μM
Procedure: as §1

iTregs and Tconvs = experiment: iTreg and Tconv expansion from DC-allostimulated naive CD4+ T cells; format: cell-based, human; details: CAS 285986-31-4 1 μM
Procedure: To evaluate iTreg development, naive CD4^+ cells were isolated from nylon-wool-eluted T cells by magnetic-bead selection (Miltenyi Biotec), based on the positive expression of CD4 and lack of CD45RO, CD25, or both. In addition, CD127 staining of the naive CD4^+ cells was performed after the purification, to ensure depletion of natural Tregs from the cell product. Negligible amounts of CD127^-, CD25^Bright nTregs were observed after magnetic-bead purification. […] The T cells were harvested and surface stained on day 5 for CD3, -4, -25, and -127, followed by fixation and permeabilization (eBioscience), and then intracellular staining for Foxp3 [Liu, W., et al. (2006) J. Exp. Med. 203, 1701-1711; […]., et al. (2006) J. Exp. Med. 203, 1693-1700]. Tregs were characterized by gating on the live cells expressing surface CD3^+, CD4^+, and absence of CD127, followed by expression of Foxp3 and CD25^bright [Liu, W., et al. (2006) J. Exp. Med. 203, 1701-1711; […]., et al. (2006) J. Exp. Med. 203, 1693-1700]. The absolute number of iTregs and Tconv (CD4^+ CD25^-) cells was obtained by timed acquisition. The ratio of iTreg:Tconv was calculated based on the absolute number of each T-cell population.

Foxp3 TSDR = experiment: iTreg Foxp3 demethylation assay; format: cell-based, human; details: CAS 285986-31-4 1 μM
From the text: iTreg Foxp3 demethylation assay. […] (2013) J. Immunol. 190, 3180-3188; Miyao, T., et al. (2012) Immunity 36, 262-275]. The degree of Foxp3 TSDR demethylation among iTregs from DMSO-treated allo-MLRs, purified nTregs, and Tconvs served as the controls [[…]., et al. (2013) Blood 122(13):2251-61]. For these experiments, iTregs and nTregs were sorted to select the CD4^+ CD25^+ CD127^- population. PCR products were amplified by using methylation or demethylation specific TSDR forward and reverse primers from bisulphate-treated genomic DNA of sorted natural Tregs. DNA fragments were cloned into a pCR2.1-Topo vector (Life Technologies, Grand Island, N.Y., USA) and verified by DNA sequencing. The following TSDR primers and probes were used for PCR: methylation forward [NT] ID NO:1), reverse [NT] ID NO:2), and hydrolysis probe [NT] (SEQ ID NO:3); and demethylation forward [NT] ID NO:4), reverse [NT] ID NO:5), and hydrolysis probe [NT] ID NO:6). Standards were diluted at concentrations ranging from 2^7 to 2^3 plasmid copies of each methylation or demethylation TSDR. Genomic DNA was isolated by using the DNeasy Blood and Tissue kit (Qiagen, Valencia, Calif., USA) from sorted natural or expanded iTregs. Genomic DNA (200-500 ng) was treated with bisulfite from the EZ DNA Methylation-Gold Kit (Zymo Research, Irvine, Calif., USA). […]

T1 sequence (P40763 whole entry): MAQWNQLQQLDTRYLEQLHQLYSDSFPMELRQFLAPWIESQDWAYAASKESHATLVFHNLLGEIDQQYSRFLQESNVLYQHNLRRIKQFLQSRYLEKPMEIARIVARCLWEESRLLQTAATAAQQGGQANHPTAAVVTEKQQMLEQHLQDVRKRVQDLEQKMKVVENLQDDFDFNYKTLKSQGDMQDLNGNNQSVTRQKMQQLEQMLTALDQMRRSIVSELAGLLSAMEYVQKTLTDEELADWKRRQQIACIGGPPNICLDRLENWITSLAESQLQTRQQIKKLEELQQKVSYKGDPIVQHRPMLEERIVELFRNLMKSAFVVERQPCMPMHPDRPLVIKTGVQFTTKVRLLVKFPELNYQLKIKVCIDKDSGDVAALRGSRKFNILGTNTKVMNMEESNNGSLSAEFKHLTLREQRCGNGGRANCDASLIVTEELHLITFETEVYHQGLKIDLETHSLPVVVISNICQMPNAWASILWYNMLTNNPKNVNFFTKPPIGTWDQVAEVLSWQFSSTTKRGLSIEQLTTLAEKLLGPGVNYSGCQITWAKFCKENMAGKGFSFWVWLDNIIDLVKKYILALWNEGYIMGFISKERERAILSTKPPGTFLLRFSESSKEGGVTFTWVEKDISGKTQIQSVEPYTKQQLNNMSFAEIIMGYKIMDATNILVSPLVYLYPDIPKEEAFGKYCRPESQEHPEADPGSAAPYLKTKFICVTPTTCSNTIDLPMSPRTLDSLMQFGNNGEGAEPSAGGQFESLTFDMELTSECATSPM

**Q.** With “tocilizumab: humanised IL-6 receptor-inhibiting monoclonal antibody” as the compound, how does the “reducing TH17 responses or enhancing Treg development” value (TH17 responses) read?
**A.** The value was “insufficient”.

**Q.** With CO[C@H]1C[C@@H]2CC[C@@H](C)[C@@](O)(O2)C(=O)C(=O)N2CCCC[C@H]2C(=O)O[C@H]([C@H](C)C[C@@H]2CC[C@@H](O)[C@H](OC)C2)CC(=O)[C@H](C)/C=C(\C)[C@@H](O)[C@@H](OC)C(=O)[C@H](C)C[C@H](C)/C=C/C=C/C=C/1C [rapamycin] as the compound, how does the inhibition at 0.01 µg/mL (primed T-cells) read?
**A.** The inhibition at 0.01 µg/mL was 69%.

**Q.** Which “efficacy in refractory GVHD” value [1] does the source give for “ustekinumab: monoclonal antibody targeting the p40-cytokines” here?
**A.** Its value is “demonstrated efficacy”.

**Q.** Which results are given for O=C(N/N=C/c1coc2ccccc2c1=O)c1cccnc1 [CAS 285986-31-4]?
**A.** concentration achieving maximum allostimulated T-cell growth [2]: 1 µM; toxic effects by viability staining (T cells): no toxic effects; STAT3 signaling (STAT3): maintained intact; ratio of CD4+, pSTAT5Bright to CD4+, pSTAT3+ T cells (STAT5): significantly decreased; CD4+, pSTAT5Bright population (STAT5; 5 day allo-MLR): selectively impaired; overall geometric MFI of CD4+ STAT5 phosphorylation (STAT5; 5 day allo-MLR): did not affect; allostimulated iTreg expansion (iTregs and Tconvs): significantly decreased; iTreg:Tconv ratio compared with DMSO or STAT3 inhibitor (iTregs and Tconvs): significant reduction; iTreg Foxp3 demethylation (Foxp3 TSDR): significant reduction
